According to patent publication US20130203822A1, “COMPOUNDS FOR TREATMENT OF TUMORS BEARING D[…] ONCOPROTEINS” (priority 2010, published 2013):
Counter-ions that a name gives are not always drawn.

Assays:
MYCN protein = experiment: immunofluorescence analysis of MYCN expression; type: cell-based, human; conditions: CHP134 cells, 24 h, different concentration of CPX
Experimental: To verify if the CPX enhancement effects on luciferase activity was accompanied by an increase in MYCN protein levels, an immunofluorescence analysis were performed on CHP134 cells plated in 96-well imaging plates (BD) and treated after adhesion for 24 h at different concentration of CPX. Cells were fixed by paraformaldehyde (PFA) 3.7%, permeabilized with 0.1% Triton X100, incubated with anti-MYCN mouse monoclonal antibody (ab16898, ABCAM) and stained with Alexafluor 488 rabbit anti-mouse secondary antibody.
Images were acquired by Operetta (Perkin Elmer) high content system and analyzed by the Harmony software.
Results represent fluorescence intensity in the nuclear area previously identified by DAPI staining.

[1] = rat; cited from earlier work
MYCN 3′UTR = experiment: luciferase reporter screening and counter-screening in CHP134-MYCN and CHP134-CTRL stable clones; type: cell-based, human; conditions: 24 h; for dependence of luciferase reporter upregulation on MYCN 3′UTR (counter-screening): 2 uM, CHP134-MYCN#3 versus CHP134-CTRL#19
Experimental: Reporter constructs containing the firefly luciferase reporter gene under the control of the CMV viral promoter and followed by either the whole MYCN 3′UTR (pGL4.26-MYCN3UTR) or the only SV40 poly(A) region (pGL4.26-CTRL) as a control were produced as disclosed above.
The CHP134 neuroblastoma cell line was used to generate stable transfection clones as disclosed in Example 3.
The screening was carried out in the CHP134-MYCN#3 stable clone with the Spectrum Collection small molecule library (MicroSource Discovery) composed of 2000 compounds stored at 10 mM in DMSO: 800 drugs that have been introduced in the US, 200 drugs that are limited in use to Europe and Japan, 580 natural products, 420 compounds with reported biological activities.
The assay was run in triplicates in 96-well plates. CHP134-MYCN stable clone cells were trypsinized, harvested and resuspended in culture medium. Tecan Multichannel arm (MCA96) of a Tecan EVO 200 robot (Tecan) was used to add 150 uL containing 15000 cells to the 96-well white CulturePlate-96 (Perkin Elmer).
After adhesion, the 10 mM compounds were diluted to 75 uM in PBS and immediately pipetted into the 96 wells in order to have a final concentration of 2 uM in the cells. Baseline controls were obtained treating the first column wells with PBS+DMSO at the same final concentration of the samples.
Luciferase activity was assessed using OneGlow Luciferase assay (Promega) according to the manufacturer's method, after 24 h of incubation at 37° with 5% CO2 and 100% relative humidity. Luminescence signal was read on a Tecan F200 multiplate reader (Tecan) integrated with the robot.
The majority of the hits (Table 1) were then checked for reproducibility and cytotoxic activity, the most interesting compounds were also tested for dose-responsiveness. The same hits were subsequently subjected to counter-screening with the stable clone CHP134-CTRL#19 expressing the control pGL4.26-CTRL plasmid, to segregate plasmid promoter-dependent transcriptional control effects.
To verify the specificity of the CPX effect for the MYCN 3′UTR and its clone-independency, the treatment was repeated with the CHP134-MYCN#3 clone and the CHP134-CTRL#19 clones and with two independent others, again stably transfected with the pGL4.26-MYCN3UTR and the pGL4.26-CTRL plasmids (respectively, CHP134-MYCN#1 and the CHP134-CTRL#17 clones).
Treatment with CPX 2 uM and measurement of luciferase activity with the OneGlow luciferase assay after 24 h provided a confirmation of the screening results (FIG. 3).

[2] = tested on: CHP134-MYCN#3 neuroblastoma cell clone; experiment: WST-1 cell cytotoxicity assay with selected hits at 2 uM; type: cell-based, human; conditions: MYCN-amplified neuroblastoma cells, 24 or 48 hours
Experimental: a) Cell cytotoxicity was performed by WST1 assay (Roche) following the manufacturer's instruction: 15000 cells were plated in each well of 96-well transparent Spectra Plate (Perkin Elmer) in 150 ul of complete media.
(§1) After adhesion, cells were treated with the selected drugs (Table 1) at 2 uM concentration and incubated at 37° with 5% CO2 and 100% relative humidity for 24 or 48 hours. At the defined endpoint, 15 uL of WST1 reagent were added and after 4 hours incubation at 37° with 5% CO2 and 100% relative humidity, plates were read for absorbance at 450 nm in a Tecan F200 multiplate reader (Tecan).
(§2) Different measurements were needed in order to calculate the percentage growth: time zero (Tz: that represent a measurement of the cell population at the time of drug addition), control growth (C: measures the growth of the cells treated with vehicle only after 24 or 48 hours) and test growth (Ti: that represent a measurement of the cell population after 24 or 48 hours). Percentage growth is calculated as:
[(Ti−Tz)/(C−Tz)]×100 eq. (2)
for concentrations for which Ti>=Tz;
for concentrations for which Ti<Tz.

CHP134 cells = experiment: Annexin V-FITC / PI apoptosis assay by flow cytometry; type: cell-based, human; conditions: CHP134, 24 and 48 hr, different concentrations
Experimental: c) Apoptosis assay was performed by flow cytometry. CHP134 cells were seeded 10 cm-dishes at the concentration 1×10^6 cells under standard culture conditions. In three days cells were treated with CPX at different concentration for 24 and 48 hr. The cells were then harvested, washed with cold PBS and processed for apoptosis assay using the Annexin V-FITC Apoptosis Detection Kit I (BD Biosciences) by following the instructions of the manufacturer. Briefly, cells were stained with FITC-Annexin V and PI (Propidium Iodide) in order to allow for the identification of death cells (FITC and PI positive), viable cells (FITC and PI negative) and pre-apoptotic cells (FITC positive and PI negative). Flow cytometric analysis was performed with the BD FACS Canto (BD Biosciences).
The results are shown, in FIG. 6. Numbers indicate the percentage of apoptotic/dead cells (P1) and pre-apoptotic cells (P2) respectively.

[3] = humans; deferiprone: iron overload treatment in transfused thalassemia patients; doxorubicin: high dose infusional in tumor bearing patients; cited from earlier work
[4] = tested on: CHP134 and SiMa neuroblastoma cell lines; experiment: WST-1 dose-response cytotoxicity of ciclopirox olamine and piroctone olamine; type: cell-based, human; conditions: 0.33-100 μM, 48 hours
Experimental: as §1, with “different concentration of CPX ranging from 66 nM to 66” for “the selected drugs (Table 1) at 2”, “for” for “for 24 or”, “ul” for “uL”
as §2, with “after” for “after 24 or”, “hours treatment with CPX).” for “hours). Percentage growth is calculated as:”
Percentage growth is calculated as above by means of eq.s (2) and (3).
In order to understand if compounds of similar molecular structure to that of CPX could be also effective in inducing a cytotoxic activity, we treated two neuroblastoma cell lines, CHP134 and SiMa, with increasing concentrations of both compounds (0.33-1-3.3-10-33-100 μM), and we measured cytotoxicity after 48 hours as detailed before.

Row | Compound | acute lethal dose 50 (LD50) [1] [mg/kg] | dependence of luciferase reporter upregulation on MYCN 3′UTR (counter-screening) (MYCN 3′UTR) | cytotoxicity [2] | plasma concentration [3] [µM] | further results
1 | Cc1cc(C2CCCCC2)n(O)c(=O)c1 [ciclopirox olamine, CICLOPIROX OLAMINE] | 2350 | truly dependent on MYCN 3′UTR | efficient cytotoxicity |  | MYCN nuclear immunostaining (fluorescence intensity in the nuclear area) (MYCN protein): dose-dependent increase; luciferase expression (MYCN 3′UTR; CPX 2 uM, clones CHP134-MYCN#3, CHP134-MYCN#1, CHP134-CTRL#19, CHP134-CTRL#17): clone-independent, MYCN 3′UTR specific effect of increased luciferase expression; effect on cell viability: percentage of apoptotic/dead (P1) and pre-apoptotic (P2) cells (CHP134 cells): increased percentage of apoptotic/dead cells
2 | COc1cccc2c1C(=O)c1c(O)c3c(c(O)c1C2=O)C[C@@](O)(C(C)=O)C[C@@H]3O[C@H]1C[C@H](N)[C@H](O)[C@H](C)O1 [daunorubicin, DAUNORUBICIN] |  | truly dependent on MYCN 3′UTR | efficient cytotoxicity |  | 
3 | Cc1c(O)c(=O)ccn1C [deferiprone, 3-hydroxy-1,2-dimethylpyridin-4-one] | 2000 |  |  | ≥ 250 | 
4 | COc1cccc2c1C(=O)c1c(O)c3c(c(O)c1C2=O)C[C@@](O)(C(=O)CO)C[C@@H]3O[C@H]1C[C@H](N)[C@H](O)[C@H](C)O1 [doxorubicin, DOXORUBICIN] | 10.5 | truly dependent on MYCN 3′UTR | efficient cytotoxicity | 0.1 | 
5 | COc1cccc2c1C(=O)c1c(O)c3c(c(O)c1C2=O)C[C@@](O)(C(=O)CO)C[C@@H]3O[C@H]1C[C@H](N)[C@@H](O)[C@H](C)O1 [epirubicin, EPIRUBICIN HYDROCHLORIDE] |  |  | efficient cytotoxicity |  | 
6 | Cc1cc(CC(C)CC(C)(C)C)n(O)c(=O)c1.NCCO (stereo not shown) [piroctone olamine] |  |  |  |  | cytotoxic activity compared with CPX [4]: even stronger activity
